Reference: PubChem BioAssay AID449750 (Broad Institute, 2010)
Activity calls are given as the source filed them. No rule for the calls is given here.

Assay: non-covalent RecA intein splicing inhibitors, dose response, biochemical, cell-free, fluorescence, secondary screen (AID 449750)

Which AC50 does the source give for `COc1ccccc1/C=C/C1(C(=O)NC2CCCC2)CC(=O)N1c1ccc(F)cc1` (stereo not drawn) here?
The AC50 was 9.42 µM.

For `COc1ccc(-c2cc(=O)n(-c3ccc([N+](=O)[O-])cc3)[nH]2)cc1`, which AC50 is on record?
The AC50 was 3.4 µM.

Which AC50 does the source give for `COc1ccc(-n2c3nc4ccccc4nc3c3c(=N)oc(C)nc32)cc1` here?
The AC50 was > 12 µM (inactive).

Which AC50 does the source give for `CCOC(=O)c1c(NC(C)=O)sc2c1CCC(C=NCCCN(CC)CC)=C2Sc1ccccc1` here?
Its AC50 is 0.311 µM.

Which AC50 does the source give for `COC1=CC(=O)C(O)=C(CCCCCCC/C=C/CCCCCCCC2=C(O)C(=O)C=C(OC)C2=O)C1=O` here?
Its AC50 is 4.64 µM.

For `O=c1[nH]c(Nc2ccccc2Cl)cc2ccccc12`, which AC50 is on record?
Its AC50 is 15.5 µM.

With `CCNc1ccccc1CP(=O)(c1ccccc1)c1ccccc1O` (stereo not drawn) as the molecule, how does the AC50 read?
Its AC50 is 22.6 µM.

For `CCOC(=O)C1CCN(C(=O)c2c(C)oc3c2C(=O)c2ccccc2C3=O)CC1`, which AC50 is on record?
Its AC50 is 21 µM.

With `Cc1[nH][nH]c(=O)c1C(c1c(C)[nH][nH]c1=O)c1cn(Cc2ccccc2Cl)c2ccccc12` as the molecule, how does the AC50 read?
The AC50 was 1.68 µM.

Which AC50 does the source give for `CCO/C=C1/C(=O)N(C)C(=O)c2cc(OC)ccc21` here?
Its AC50 is > 38 µM (inactive).

With `Cn1cnc([N+](=O)[O-])c1Oc1cccc2ccccc12` as the molecule, how does the AC50 read?
Its AC50 is > 38 µM (inactive).

With `N#CC1=C(N)Oc2n[nH]c(-c3cccs3)c2C1c1cccnc1` (stereo not drawn) as the molecule, how does the AC50 read?
Its AC50 is > 38 µM (inactive).

With `O=C(NCc1ccc2c(c1)OCO2)c1nc(S(=O)(=O)Cc2ccccc2)ncc1Cl` as the molecule, how does the AC50 read?
The AC50 was > 38 µM (inactive).

Which AC50 does the source give for `Cc1ccsc1C=Nc1ccc(O)cc1` here?
The AC50 was > 38 µM (inactive).

Which AC50 does the source give for `CCc1ccc(S(=O)(=O)Nc2ccc(O)c3ccccc23)cc1` here?
Its AC50 is 0.535 µM.

For `CCOc1ccc2c(c1)C(NC(C)=O)C(=O)N2CCN1CCOCC1` (stereo not drawn), which AC50 is on record?
The AC50 was 34.2 µM.

For `O=C(c1ccc(Cl)cc1)c1c[nH]c(C(=O)C(Cl)(Cl)Cl)c1`, which AC50 is on record?
The AC50 was 16.6 µM.

Which AC50 does the source give for `CCc1ccc(N2C(=O)C(Cl)=C(N3CCOCC3)C2=O)cc1` here?
Its AC50 is > 38 µM (inactive).

For `N#CC1=C(N)Oc2n[nH]c(-c3cccs3)c2C1c1ccsc1` (stereo not drawn), which AC50 is on record?
The AC50 was 3.98 µM.

For `Cc1[nH]n(-c2ccccc2)c(=O)c1/C=N\NC(=O)C1COc2ccccc2O1` (stereo not drawn), which AC50 is on record?
The AC50 was 8.94 µM.

With `CC(C)(C)c1csc(NC(=O)c2c(F)c(F)c(F)c(F)c2F)n1` as the molecule, how does the AC50 read?
Its AC50 is 16.3 µM.

Which AC50 does the source give for `CCC(C)[C@H](NC(=O)NC1CCN(Cc2ccccc2)CC1)C(=O)OC` (stereo partly drawn) here?
The AC50 was 5.82 µM.

With `COc1cc(/C=C/c2sc3ccccc3[n+]2CCCS(=O)(=O)[O-])ccc1O` as the molecule, how does the AC50 read?
Its AC50 is > 38 µM (inactive).

Which AC50 does the source give for `O=C1C(Cl)=C(NCCN2CCCCC2)C(=O)c2ccccc21` here?
The AC50 was 13.3 µM.

With `O=C(NN=c1c(=O)c2ccccc2c1=O)c1ccccc1` as the molecule, how does the AC50 read?
The AC50 was 8.96 µM.

With `N#CC1=C(N)Oc2n[nH]c(-c3ccc(F)cc3)c2C1c1ccncc1` (stereo not drawn) as the molecule, how does the AC50 read?
The AC50 was 8.32 µM.

With `Cc1ccc(NC(=O)c2cnc(SCC(=O)NCC3CCCO3)n(C)c2=O)cc1` (stereo not drawn) as the molecule, how does the AC50 read?
Its AC50 is > 38 µM (inactive).

For `Oc1cc(O)c2c(c1)O[C@H](c1ccc(O)c(O)c1)[C@@H](O)C2`, which AC50 is on record?
Its AC50 is > 38 µM (inactive).

With `COC(=O)c1sc(N)c(C(=O)OC)c1Cn1ncc(Cl)c(Cl)c1=O` as the molecule, how does the AC50 read?
Its AC50 is > 38 µM (inactive).

With `COc1ccc(-c2csc(Nc3ccc(O)cc3)n2)cc1` as the molecule, how does the AC50 read?
The AC50 was > 38 µM (inactive).

With `O=C(CCl)NN=C(c1ccccc1)c1ccccc1` as the molecule, how does the AC50 read?
Its AC50 is 6.37 µM.

Which AC50 does the source give for `Cc1ccccc1NC1=C(Cl)C(=O)OC1OC(=O)c1ccco1` (stereo not drawn) here?
The AC50 was > 38 µM (inactive).

Which AC50 does the source give for `Cc1cc(C)c(C#N)c(SCc2[nH]nc3c2C(c2ccc(F)cc2)C(C#N)=C(N)O3)n1` (stereo not drawn) here?
Its AC50 is 29.2 µM.

Which AC50 does the source give for `C/C(CC(=O)Nc1ccccn1)=N\NC(=O)Cc1cccc2ccccc12` here?
Its AC50 is 25.6 µM.

For `Cc1cccc(N2C(=O)C(Cl)=C(N3CCOCC3)C2=O)c1`, which AC50 is on record?
Its AC50 is > 38 µM (inactive).

For `O=C1C=C(Nc2ccccc2O)c2ccccc2C1=O`, which AC50 is on record?
Its AC50 is > 38 µM (inactive).

For `COc1ccc(OC)c(C2C(C#N)=C(N)Oc3c2c(C)nn3-c2cccc(Cl)c2)c1` (stereo not drawn), which AC50 is on record?
Its AC50 is 30 µM.

Which AC50 does the source give for `CN(C(=O)c1cccc(COc2ccc(Cl)cc2Cl)c1)c1ccccc1` here?
The AC50 was > 38 µM (inactive).

For `CCC1C(=O)N(c2nc(C)cc(C)n2)N=C1C` (stereo not drawn), which AC50 is on record?
Its AC50 is > 38 µM (inactive).

Which AC50 does the source give for `O=c1[nH]c(O)c(N=Nc2cc([N+](=O)[O-])ccc2O)c(=O)[nH]1` here?
The AC50 was 2.29 µM.

For `CN1CCN(c2ccc([N+](=O)[O-])c3no[n+]([O-])c23)CC1`, which AC50 is on record?
Its AC50 is > 38 µM (inactive).

With `CCCc1c(C)c2c(C)[nH]nc2oc1=O` as the molecule, how does the AC50 read?
Its AC50 is > 38 µM (inactive).

For `COc1ccccc1-c1c(C)oc2cc(OC(=O)c3ccco3)ccc2c1=O`, which AC50 is on record?
The AC50 was > 38 µM (inactive).

With `O=C(CCN1C(=O)/C(=C/c2cccs2)SC1=S)Nc1ccc(C(=O)O)c(O)c1` as the molecule, how does the AC50 read?
The AC50 was 19 µM.

With `CSc1nc(-c2ccc(Cl)cc2)nn1C(=O)c1ccco1` as the molecule, how does the AC50 read?
Its AC50 is > 38 µM (inactive).

With `CCOc1cc(/C=C2/C(=N)N3C(=NC2=O)SN=C3S(=O)(=O)C(C)C)ccc1OC(=O)c1ccco1` as the molecule, how does the AC50 read?
Its AC50 is > 38 µM (inactive).

For `O=C(NC1(O)C(=O)c2ccccc2C1=O)c1c(Cl)cccc1Cl`, which AC50 is on record?
The AC50 was 12.5 µM.

With `O=C(CCl)N1N=C(c2ccco2)CC1c1ccco1` (stereo not drawn) as the molecule, how does the AC50 read?
Its AC50 is 19.1 µM.

With `FC(F)(F)c1nnc(-c2ccccc2)nc1Sc1ccccc1` as the molecule, how does the AC50 read?
The AC50 was > 38 µM (inactive).

For `CC(=O)Oc1c(/C=C(\C#N)C(N)=O)[nH]c2ccccc12`, which AC50 is on record?
Its AC50 is > 38 µM (inactive).

With `Cc1ccc(-c2cc(-c3ccc(C)cc3)[n+](-c3ccc(C(=O)[O-])cc3)c(-c3ccc(C)cc3)c2)cc1` as the molecule, how does the AC50 read?
The AC50 was 37.5 µM.

Which AC50 does the source give for `O=C(CCl)N1CCN2C(=O)c3ccccc3C12c1ccc(Cl)cc1` (stereo not drawn) here?
The AC50 was 7.81 µM.

Which AC50 does the source give for `CCOC(=O)c1cnc(N)nc1C(F)(F)F` here?
The AC50 was > 38 µM (inactive).
